pIC50: −log10 of the molar value. Like-named read-outs stand apart in the source and are kept apart here.
Legend:
[1] = target: T1, human OCT1 (Homo sapiens, UniProt O15245); assay: SLC transporter inhibition in HEK293 cells; type: in vitro ADME
T1 construct: expressed in transfected cells; host or cells: HEK293
T1 sequence (O15245 1-554): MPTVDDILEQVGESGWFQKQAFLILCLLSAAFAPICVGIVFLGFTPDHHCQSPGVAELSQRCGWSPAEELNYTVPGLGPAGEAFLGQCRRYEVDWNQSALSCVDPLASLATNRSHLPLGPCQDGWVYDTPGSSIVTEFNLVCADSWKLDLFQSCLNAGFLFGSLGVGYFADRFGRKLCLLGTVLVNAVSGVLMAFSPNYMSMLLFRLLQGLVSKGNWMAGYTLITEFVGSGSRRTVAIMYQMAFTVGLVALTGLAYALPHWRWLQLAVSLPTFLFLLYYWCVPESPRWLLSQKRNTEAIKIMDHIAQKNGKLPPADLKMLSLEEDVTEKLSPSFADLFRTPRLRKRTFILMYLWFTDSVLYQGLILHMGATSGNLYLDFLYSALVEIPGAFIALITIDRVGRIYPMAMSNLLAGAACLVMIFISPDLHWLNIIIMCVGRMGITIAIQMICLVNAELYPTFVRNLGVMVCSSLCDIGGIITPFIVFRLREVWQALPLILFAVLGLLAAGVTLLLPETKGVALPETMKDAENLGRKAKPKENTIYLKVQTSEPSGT

[2] = system: γ-H2AX in Hs68 cells; assay: γ-H2AX flow cytometry in normal fibroblasts; type: cell-based, human; details: 300 nM, alone or in combination with cisplatin, 24 hours
Procedure: The Hs68 Normal foreskin fibroblast cell line was grown in DMEM-high glucose/1× Glutamax/10% fetal bovine serum and was plated at 30,000 cells/well in Corning 6 well tissue culture treated plates. Cells were incubated at 37° C. for 24 hours prior to addition of the first treatment. […] Cells were treated to 24 hours post-initial treatment, with 10 μM EdU added at hour 23. Cells were collected and fixed in 1% paraformaldehyde. Cells were incubated with pacific blue azide dye as described by Thermo Scientific. Cells were then incubated with antibody against γ-H2AX at a ratio of 1:50 before incubation with FarRed dye and RNase. Cells were analyzed on a BD Celesta and data compiled using FloJo and GraphPad (FIG. 6).

[3] = system: OVCAR-3 cell loaded Hollow Fibers; assay: Mouse hollow fiber assay (CellTiter Glo); type: in vivo, mice; details: 75, 100, 150 mg/kg twice daily, Day 16
Procedure: The mouse hollow fiber assay was conducted using three tumor cell lines, OVCAR-3 (ovarian), MKN-1 (gastric), and HCC-1569 (breast), 1e7 OVCAR-3, 5e6 MKN-1, and 1e7 HCC-1569 cells were loaded into Hollow Fibers, placed in cell culture dishes containing RPMI-1640 with 20% FCS and 1% penicillin/streptomycin, and were equilibrated in an incubator at 37 C, 5% CO2 overnight. On Day 0, three fibers were implanted in two different compartments: subcutaneous and intraperitoneal of twenty-four female NMRI nude mice ages 4-5 weeks. […] Female NMRI nude mice were implanted both subcutaneously and intraperitoneally with HCC-1569, MKN1, and OVCAR3 tumor cell-loaded Hollow Fibers on Day 0. The number of animals alive on Day 0 (implantation) and on Day 16 (necropsy) in each group is shown in parentheses in the legend.
OVCAR-3 cell loaded Hollow Fibers were implanted both subcutaneously and intraperitoneally into female NMRI nude mice on Day 0. Hollow Fibers were collected during necropsy on Day 16 and analyzed using a CellTiter Glo® assay.

[4] = system: γ-H2AX in H526 cells; assay: γ-H2AX flow cytometry; type: cell-based, human
Procedure: (§1) The H526 human lung carcinoma cell line was grown in RPMI-1640/1× Glutamax/10% fetal bovine serum and was plated at 200,000 cells/well in Corning 6 cm tissue culture treated plates. Cells were incubated at 37° C. for 24 hours prior to addition of the first treatment. […] Cells were treated to 24 or 48 hours post-initial treatment, with 10 μM EdU added 1 hour prior to collection. Cells were collected and fixed in 1% paraformaldehyde. Cells were incubated with pacific blue azide dye as described by Thermo Scientific. Cells were then incubated with antibody against γ-H2AX at a ratio of 1:50 before incubation with FarRed dye and RNase. Cells were analyzed on a BD Celesta and data compiled using FloJo and GraphPad.
as §1, with “24” for “24 or 48”, “added at” for “added 1”, “hour 23 (FIG. 28A).” for “hour prior to collection.”, “Scientific. […]” for “Scientific. Cells were then incubated with antibody against γ-H2AX at a ratio of 1:50 before incubation with FarRed dye and RNase.”

[5] = system: SA-beta galactosidase in LYR and LYFR cells; assay: Senescence-associated beta-galactosidase staining; type: cell-based; details: with abemaciclib and/or fulvestrant, 5 days
Procedure: Briefly, cells were plated at low density and treated with the agents described for 5 days. A senescence detection kit was used to stain for SA-beta galactosidase (FIG. 148A-148D).

[6] = system: OVCAR-3 cells; assay: CellTiter Glo cell proliferation assay; type: cell-based, human; details: six days
Procedure: Plates were returned to the incubator for six additional days. On day six post dosing, plates were removed and treated with CellTiter Glo reagent following manufacturer's specifications. Plates were incubated 45 minutes at room temperature and run on Biotek luminometer with 1 sec/well detection. Results were converted to Microsoft Excel and transferred to Graphpad Prism for analysis. […] These cell types are distinguished by either gained of cyclin E1 expression or activation (Kuramochi) or intrinsic amplification of cyclin E1 (OVCAR-3, COV318).
In a similar manner, OVCAR-3 cells were grown in RPMI-1640, 1× Glutamax, 10% FBS and 1×ITS at 37° C., 5% CO2. Cells were plated at 500 cells per well in white wall/clear bottom plates and incubated overnight. […] Plates returned to incubator for six additional days. On day six post dosing, plates were removed and treated with CellTiter Glo reagent following manufacturer's specifications. Plates were incubated 45 minutes at room temperature and run on Biotek luminometer with 1 sec/well detection. Results were converted to Microsoft Excel and transferred to GraphPad Prism for analysis.

## NS(=O)(=O)c1ccc(Nc2ncc3cc4n(c3n2)C2(CCCCC2)C(=O)NN4)cc1 [Compound I]
[1]; OCT1, HEK293 cells
  Maximum Percent inhibition: 89%
[1]; OCT1, HEK293 cells, read-out: IC50
  pIC50: 5.26
[1]; read-out: OCT1 IC50
  pIC50: 5.26
[2]
  percent of γ-H2AX-positive cells: lower percent of γ-H2AX-positive cells compared with control
[3]
  tumor bioluminescence signal (CellTiter Glo) of Hollow Fibers: significant reduction
[4]; 300 nM Compound I + 300 nM cisplatin
  γ-H2AX signal, combination with cisplatin: roughly double the signal
[4]; 30 to 1000 nM, 24 or 48 hours
  γ-H2AX signal, Compound I alone: increased yH2AX starting at 100 nM
[5]
  beta galactosidase staining: significantly increased beta galactosidase staining
[6]; CCNE1 amplified
  cell viability compared with palbociclib: potently decreases cell viability
[6]; Homo sapiens, OVCAR-3, 144 h
  pIC50: 7.31
